Assay [1] concerns RA specific autoantibodies in human sera. The assay can be described thus: LIA comparison of synthetic peptides with existing peptides and citrullinated recombinant filaggrin (Example 3). As to conditions: 212 established RA sera, 153 disease control sera (table title: 225 and 154); ROC analysis. It counts as binding. How it is done: Streptavidin-complexed peptides were applied directly on a nylon membrane with a plastic backing. Blocked strips were incubated during 1 hour with human sera diluted 1/100 in 1 ml PBS, 0.5% caseine, 0.1% Triton X705, 10 mM MgCl2.6H2O. After washing with PBS, 0.05% Tween20, goat anti-human IgG-AP conjugate (Promega) diluted in PBS, 0.1% caseine, 0.2% Triton X705 was added for 30 min. Strips were developed in 100 mM NaCl, 100 mM Tris-HCl, pH 9.8, 50 mM MgCl2.6H2O substrate buffer containing the chromogenic substrate NBT/BCIP. Reaction was stopped after 30 min by addition of 0.2 N H2SO4. Air-dried strips were scanned using a HP Scanjet 5P scanner and an in-house LIA interpretation software program.
Recombinant human filaggrin was expressed in E. coli and purified by Ni-IMAC chromatography. Citrullination was performed as described by Senshu et al. (1995) using peptidylarginine deiminase (Sigma) at a 1/120 enzyme/substrate ratio during 4h at 37° C.
Three synthetic peptides (IGP1475, 1477 and 1564) described by Girbal-Neuhauser (1999) (patent application WO 99/35167) and the cyclic peptide IGP1546 described in the patent application WO 98/22503, were synthesised and used for comparison with IGP1611, 1646, 1650 and 1651 on LIA.
On the same strips, also citrullinated recombinant E. coli filaggrin was applied. […]

Assay [2] deals with anti-filaggrin autoantibodies. As to conditions: cited from earlier work.
For assay [3], the system named is RA sera. As to conditions: 159/279 RA sera; specificity level of 98.6% using 213 disease control sera; cited from earlier work.
The test system of assay [4] is anti-filaggrin antibodies in human sera. Description: Western blotting using natural filaggrin. The assay is classed as binding. How it is done:
Natural filaggrin was purified from human skin obtained freshly after abdominoplasty according to the protocol of Simon et al. (1993). The amount of protein was determined by the Bradford protein assay as modified by Peterson (1983) using BSA standard curves. The crude filaggrin preparation was subjected to 15% Laemmli SDS-PAGE using the Bio-Rad mini-gel apparatus. Two-μg protein/cm was loaded in a large slot and electrophoresed under standard conditions. The gel was subsequently electroblotted onto nitrocellulose membrane in 10% methanol, 10 mM CAPS, pH 11.0 during 40 min. The blot was blocked in PBS, 0.05% Tween20, 1% gelatin and cut into 3 mm strips, which were probed with human sera overnight at a 1/100 dilution in PBS, 0.05% Tween20, 0.1% gelatin. As a secondary antibody the anti-human IgG-AP conjugate (Sigma, St Louis, […]) was added at a 1/1000 dilution; visualisation occurred with the NBT/BCIP chromogenic substrate.

The test system of assay [5] is RA sera. The following applies: cited from earlier work.

Read-outs that look alike come from different tables or passages of the source.

Consider “Citr. rec. filaggrin: Recombinant human filaggrin expressed in E. coli, citrullinated using peptidylarginine deiminase”, for which the “Sensitivity at 98% spec. level” value in assay [1] is on record as 32%.
“recombinant human filaggrin: recombinant human filaggrin, in vitro deiminated by PAD or non-citrullinated (Girbal-Neuhauser et al., 1999)”: the “reactivity with human RA sera in ELISA” value in assay [2] (after in vitro deimination by peptidylarginine deiminase (PAD)) is given as “reactive”; in assay [2] (non-citrullinated protein), “unreactive”.
For “natural filaggrin: Natural filaggrin purified from human skin (crude filaggrin preparation); in b6 isolated from human epidermis”, the “RA sera showing positive reaction on Western blot” value with RA sera [3] is reported as 37%. In addition, the “sensitivity of Western blot” value in assay [4] (47 sera from patients with early disease (less than 12 months of symptoms)) amounted to 25%; in assay [4] (212 longstanding RA sera), 41%. Besides, the “specificity of Western blot system” value in assay [4] (153 disease controls) was determined as 94%. Also, in the assay on RA sera [5] (55 RA sera), the “RA sera detected in ELISA” value is reported as 47%. In addition, the “healthy controls showing positivity in ELISA” value in the assay on RA sera [5] (healthy controls) was 1%.
